Columns and labels:
endogenous 2OG enzymes = assay: Effect of 6A/B on post-translational/post-synthetic modifications in HEK293T cells (Western blot, dot blot); type: cell-based, human
Procedure: To test the orthogonality of NOL toward wild type KDM4A, HEK293T cells, either nontransfected or transfected with KDM4A, were individually treated with DMSO, 400 μM 6A or 10 μM n-octyl IOX1, a nonspecific inhibitor of 2OG enzymes. […] To further probe for off-target effects of 6 on endogenous 2OG enzymes, HEK293T cells were cultured with DMSO or 400 μM 6A and examined for several postsynthetic modifications catalyzed by these dioxygenases. Key trimethylated lysine marks on extracted histone were analyzed by Western blot using corresponding antibodies (Figure S31). […] Similarly, no change in prolyl hydroxylation was detected when cellular extracts were subjected to the pan hydroxyproline antibody. […]
washed with TBST 3 times, 5 minutes each and incubated with methylene blue solution (Sigma 03978) for loading determination.
15. Determining the effect of 6A/B on post-translational modifications in HEK293T cells To determine the effects of 6B on 5hmC and 5mC levels, and correspondingly any proteins responsible for addition or removal of these motifs, HEK293-T cells (ATCC CRL-1573) were plated into 6-well tissue culture plates (Corning) in DMEM (Corning) supplemented with 10% FBS (Corning) and 1X Antibiotic/Antimycin (Penicillin/Streptomycin/Fungiozone) (Cytiva HyClone) in an incubator held at 37 °C with 5% CO2. At 75% confluency, cells were treated with 200µM 6B or equivalent volume of DMSO and left to incubate at 37 °C. 24 hours later, the media was aspirated, washed with 1X PBS (Corning) and uplifted via trypsinization (Gibco TrypLE™ Express Enzyme). Cells were centrifuged at 3000xg for 3 minutes, washed with 1X PBS and centrifuged again at 3000xg for 3 minutes.
To study the effect on genomic DNA, genomic DNA was extracted with Fisher GeneJET gemoic DNA Purification Kit (Fisher K0721) following manufactures protocol. 1000ng of gDNA, as measured via nanodrop, was then subject to Dot Blot experiment. Briefly, 20µL of 1000ng gDNA was added to 40µL of 2M NaOH-50mM EDTA solution for 3 minutes at room temperature. 140µL of 10mM Tris/1mM EDTA pH 8.0 (TE) buffer was added and heated at 95 °C for 10 minutes.
Aliquots were then transferred directly to ice and 200µL of 2M Ammonium Acetate was added and left on ice for 5 minutes. Meanwhile, PVDF Imoblinin P (Merck Millipore Ltd.) membrane was cut to size, activated with MeOH for 30 seconds and incubated in TE buffer for 5 minutes while shaking. The membrane was then placed on a 96-well Bio-Dot microfiltration apparatus (Bio-Rad), washed with 400µL of TE buffer and the gDNA solution was applied and vacuum filtered. 400µL of TE buffer was then used to wash the membrane post gDNA binding. The membrane was then dried at 37 °C for 30 minutes followed by blocking in 5% milk concentrate (Bio-Rad) TBST solution for 1 hour at room temperature. Primary antibody 5-mC (Abcam […]
was applied and left to rotate overnight at 4 °C. The following day, the blots were washed 3 times, 5 minutes each with TBST and secondary antibody of goat-anti Rabbit antibody (CST 7074) in 5% milk/TBST at 1-10000 dilution was added for 1 hour at room temperature while shaking. The […]
To study the effect of histone methyl motifs (H3K4me3, H3K9me3, H3K27me3, H3K36me3, H3K79me3) and hydroxyproline motif, cell pellets were lysed with RIPA buffer with EDTA (Fisher J61529) supplemented with 1X protease inhibitor tablet (Roche). […] The protein concentration was determined using Bradford assay kit (BioRad Laboratories) with BSA as a […]

ALKBH5 = molecular target: T1, ALKBH5 (Homo sapiens, UniProt Q6P6C2); assay: MALDI-based assay on m6A RNA substrate; type: biochemical; conditions: MALDI-TOF, m6A oligonucleotide
T1 construct: we recombinantly expressed the catalytic domains of 12 wild type dioxygenases; His; made in house; host or cells: E. coli BL21 (DE3)
T1 sequence (Q6P6C2 67-394 limits assumed): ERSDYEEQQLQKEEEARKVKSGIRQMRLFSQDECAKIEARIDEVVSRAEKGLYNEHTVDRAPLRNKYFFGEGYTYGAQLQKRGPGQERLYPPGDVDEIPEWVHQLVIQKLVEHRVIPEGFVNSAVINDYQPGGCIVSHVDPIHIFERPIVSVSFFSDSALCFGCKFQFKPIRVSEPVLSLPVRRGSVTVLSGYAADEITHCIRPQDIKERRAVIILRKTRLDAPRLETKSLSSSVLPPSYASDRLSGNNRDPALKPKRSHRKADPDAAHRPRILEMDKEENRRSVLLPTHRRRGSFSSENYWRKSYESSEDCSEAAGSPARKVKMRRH
Procedure: (§1) MALDI-based assay for FTO and ALKBH5: To determine the enzymatic activity of FTO and
(§2) ALKBH5 recombinant proteins in the presence of L-Leu NOG 6, a previously published methods
(§3) were utilized.15, 18 Briefly,10 µM of each protein was incubated in the presence of 10 µM RNA
(§4) 7.5, 150 mM KCl, 50 µM L-Leu NOG or equivalent volume of water in 10 µL aliquots. The
(§5) samples were placed on ice for 10 minutes followed by addition of 200 µM 2OG or equivalent
(§6) volume of water. After incubation at 37 °C for 30 minutes, samples were desalted with 3 µL of BT
(§7) spotted on a MALDI plate with 1uL sample and 1uL of 3-HPA matrix and monitored with Bruker
(§8) FlexControl in the reflectron negative mode and analyzed on Bruker FlexAnalysis software.

FTO = molecular target: T2, FTO (Homo sapiens, UniProt Q9C0B1); assay: MALDI-based assay on m6A RNA substrate; type: biochemical; conditions: MALDI-TOF, m6A oligonucleotide
T2 construct: we recombinantly expressed the catalytic domains of 12 wild type dioxygenases; His (N); made in house; host or cells: E. coli BL21 (DE3)
T2 sequence (Q9C0B1 32-327 limits assumed): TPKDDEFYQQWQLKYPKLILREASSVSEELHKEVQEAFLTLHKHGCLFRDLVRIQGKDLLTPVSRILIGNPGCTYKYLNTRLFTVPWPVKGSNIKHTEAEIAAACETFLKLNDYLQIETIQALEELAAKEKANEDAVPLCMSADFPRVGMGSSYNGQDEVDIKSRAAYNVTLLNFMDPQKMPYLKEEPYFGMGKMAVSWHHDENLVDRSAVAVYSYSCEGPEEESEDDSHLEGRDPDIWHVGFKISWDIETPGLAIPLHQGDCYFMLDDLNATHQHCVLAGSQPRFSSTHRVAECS
Procedure: as §1, §2, §3, §4, §5, §6, §7, §8

NO66 = molecular target: T3, NO66 (Homo sapiens, UniProt Q9H6W3); assay: MALDI-based assay for C14orf169 (NO66) histidyl hydroxylation of peptide; type: biochemical; conditions: MALDI-TOF, peptide substrate
T3 construct: we recombinantly expressed the catalytic domains of 12 wild type dioxygenases; Tev His Flag (C); host or cells: E. coli BL21 (DE3)
T3 sequence (Q9H6W3 294-439 limits assumed): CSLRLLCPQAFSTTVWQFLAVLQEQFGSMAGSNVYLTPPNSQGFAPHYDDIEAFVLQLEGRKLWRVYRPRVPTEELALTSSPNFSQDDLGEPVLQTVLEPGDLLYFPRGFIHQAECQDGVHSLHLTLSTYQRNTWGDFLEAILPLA
Procedure: MALDI-based assay for C14orf169 (NO66) and MINA: To monitor the enzymatic activity of
C14orf169 and MINA recombinant proteins, previous methods were utilized.10-11 Briefly, 10 µM
each recombinant protein was incubated with 10 µM peptide substrate (NH2-
Ascorbic Acid, 100 µM Iron (II), 50mM HEPES pH 7.5, and 200 µM L-Leu NOG or equivalent
volume of water in 10 µL water. Aliquots were kept on ice for 10 minutes before addition of 200
µM 2OG or equivalent volume of water. After 30-60 minutes incubation at 37 °C, 1 µL sample and
1 µL S-DHB matrix were spotted on a MALDI plate and monitored with Bruker FlexControl in
the reflectron positive mode and analyzed on Bruker FlexAnalysis software. […]

| Structure (SMILES) | prolyl hydroxylation (pan hydroxyproline antibody) (endogenous 2OG enzymes; HEK293T cells, 400 μM 6A) | trimethylated K4, K9, K27, and K36 levels in histone H3 (endogenous 2OG enzymes; HEK293T cells, 400 μM 6A, Western blot) | 5mC, 5hmC, and m6A modifications on DNA and RNA (endogenous 2OG enzymes; HEK293T cells, dot blot assays) | 5mC and 5hmC marks on genomic DNA (endogenous 2OG enzymes; HEK293T cells, dot-blot assay) | dimethyllysine, trimethyllysine and hydroxyproline marks on cellular proteins (endogenous 2OG enzymes; HEK293T cellular extracts, pan antibodies, Western blot) | inhibition of ALKBH5 (ALKBH5) | inhibition of FTO (FTO) | inhibition of NO66 (NO66) |
| --- | --- | --- | --- | --- | --- | --- | --- | --- |
| CCCCCCCCOC(=O)C(=O)NC(CC(C)C)C(=O)O [6A, L-Leu octyl-ester NOG] | no change | No change | no effect | no inhibitory effect | no inhibitory effect |  |  |  |
| CC(C)CC(NC(=O)C(=O)O)C(=O)O (centres unmarked) [compound 6, N-oxalyl leucine] |  |  |  |  |  | No inhibition | No inhibition | No inhibition |
